# Reference: patent publication US9809799B2, “Methods for inactivating viruses during a protein purification process” (priority 2012, dated 2017)
# Assays:
# [1] = test system: Friend murine leukemia virus (FrMuLV); conditions: 0.5%, 4° C., within four hours; cited from earlier work
# [2] = test system: respiratory syncytial virus (RSV); conditions: 0.5%, 4° C., within four hours; cited from earlier work
# X-MuLV = X-MuLV virus inactivation using caprylic acid and detergents in test tubes; type: cell-based, xenotropic murine leukemia virus; conditions: for time for complete virus inactivation: clarified cell culture
# [3] = test system: Vesicular stomatitis virus (VSV); conditions: cited from earlier work
# [4] = test system: Herpes simplex virus-1 (HSV-1); conditions: 20° C., cell culture harvest broth; cited from earlier work
compound,measurement,setting,value
Triton X,Log 10 reduction values,[1],> 3.8
same,Log 10 reduction values,[2],> 5.4
same,X-MuLV virus inactivation (LRV),"X-MuLV; MAb05 cell culture, 0.5%, time 0 min",0
same,X-MuLV virus inactivation (LRV),"X-MuLV; MAb05 cell culture, 0.5%, time 1 min",≧3.1
same,X-MuLV virus inactivation (LRV),"X-MuLV; MAb05 cell culture, 0.5%, time 5 min",≧3.1
same,X-MuLV virus inactivation (LRV),"X-MuLV; MAb05 cell culture, 0.5%, time 10 min",≧3.1
same,X-MuLV virus inactivation (LRV),"X-MuLV; MAb05 cell culture, 0.5%, time 20 min",≧3.1
same,X-MuLV virus inactivation (LRV),"X-MuLV; Pure MAb07, 0.5%, time 0 min",0
same,X-MuLV virus inactivation (LRV),"X-MuLV; Pure MAb07, 0.5%, time 1 min",≧3.1
same,X-MuLV virus inactivation (LRV),"X-MuLV; Pure MAb07, 0.5%, time 5 min",≧3.1
same,X-MuLV virus inactivation (LRV),"X-MuLV; Pure MAb07, 0.5%, time 10 min",≧3.1
same,X-MuLV virus inactivation (LRV),"X-MuLV; Pure MAb07, 0.5%, time 20 min",≧3.1
same,time for complete virus inactivation,X-MuLV; 0.5%,complete virus inactivation after one minute
"CCCCCCCC(=O)O [Caprylate, caprylic acid]",inactivation,"[3]; 5° C., after 120 minutes",only partial inactivation
same,time to complete inactivation,"[3]; 20° C., cell culture harvest broth",less than 60 minutes
same,X-MuLV virus inactivation (LRV),"X-MuLV; MAb05 cell culture, 20 mM pH 5.5, time 0 min",0
same,X-MuLV virus inactivation (LRV),"X-MuLV; MAb05 cell culture, 20 mM pH 5.5, time 1 min",2.63
same,X-MuLV virus inactivation (LRV),"X-MuLV; MAb05 cell culture, 20 mM pH 5.5, time 5 min",≧3.8
same,X-MuLV virus inactivation (LRV),"X-MuLV; MAb05 cell culture, 20 mM pH 5.5, time 10 min",≧3.8
same,X-MuLV virus inactivation (LRV),"X-MuLV; MAb05 cell culture, 20 mM pH 5.5, time 20 min",≧3.8
same,X-MuLV virus inactivation (LRV),"X-MuLV; MAb05 cell culture, 200 mM pH 7, time 0 min",0
same,X-MuLV virus inactivation (LRV),"X-MuLV; MAb05 cell culture, 200 mM pH 7, time 1 min",2.91
same,X-MuLV virus inactivation (LRV),"X-MuLV; MAb05 cell culture, 200 mM pH 7, time 5 min",≧3.8
same,X-MuLV virus inactivation (LRV),"X-MuLV; MAb05 cell culture, 200 mM pH 7, time 10 min",≧3.8
same,X-MuLV virus inactivation (LRV),"X-MuLV; MAb05 cell culture, 200 mM pH 7, time 20 min",≧3.8
same,X-MuLV virus inactivation (LRV),"X-MuLV; Pure MAb07, 20 mM pH 5.5, time 0 min",0
same,X-MuLV virus inactivation (LRV),"X-MuLV; Pure MAb07, 20 mM pH 5.5, time 1 min",≧3.1
same,X-MuLV virus inactivation (LRV),"X-MuLV; Pure MAb07, 20 mM pH 5.5, time 5 min",≧3.1
same,X-MuLV virus inactivation (LRV),"X-MuLV; Pure MAb07, 20 mM pH 5.5, time 10 min",≧3.1
same,X-MuLV virus inactivation (LRV),"X-MuLV; Pure MAb07, 20 mM pH 5.5, time 20 min",≧3.1
same,X-MuLV virus inactivation (LRV),"X-MuLV; Pure MAb07, 200 mM pH 7, time 0 min",0
same,X-MuLV virus inactivation (LRV),"X-MuLV; Pure MAb07, 200 mM pH 7, time 1 min",≧3.1
same,X-MuLV virus inactivation (LRV),"X-MuLV; Pure MAb07, 200 mM pH 7, time 5 min",≧3.1
same,X-MuLV virus inactivation (LRV),"X-MuLV; Pure MAb07, 200 mM pH 7, time 10 min",≧3.1
same,X-MuLV virus inactivation (LRV),"X-MuLV; Pure MAb07, 200 mM pH 7, time 20 min",≧3.1
same,time for complete virus inactivation,X-MuLV; both pH and salinities,requires a minimum of five minutes
same,time to complete inactivation,[4],less than 60 minutes
